In article PMC10674987, “Sweet Cherry Extract as Permeation Enhancer of Tyrosine Kinase Inhibitors: A Promising Prospective for Future Oral Anticancer Therapies” (Pharmaceuticals, 2023):
Read-outs that look alike come from different tables or passages of the source.

Assays:
[1] = Cell viability assay (MTT) on Caco-2 cells; type: cell-based, human; conditions: human, Caco-2 cells, 2 h + 24 h fresh medium
Method: (§1) Cells were sub-cultured using a 1× trypsin/EDTA solution and then passed every 3–4 days at appropriate ratios (typically 1:3, 1:6, 1:12). […] After 2 h of treatment, solutions were aspirated from the wells, and the cells were washed with pre-warmed PBS. […] Furthermore, it was mandatory to identify the most suitable drug concentration that would avoid cytotoxic effects on Caco-2 cells (a condition that may bias the permeability study) and that would allow the optimal chromatographic response when analyzing the samples obtained. Therefore, cells were exposed to increasing concentrations of drugs (1–10–100 µM) for 2 h. […] In order to fully reproduce the conditions of the permeability studies and assess the possible induction of irreversible cytotoxic effects by SCE or drugs, cell viability was also checked after a further 24 h of incubation in free medium (2 h + 24 h). Cell viability was assessed as above described.

[2] = system: Caco-2 cells; assay: Cell viability assay (MTT) on Caco-2 cells; type: cell-based, human; conditions: 2 h
Method: as §1

[3] = design: method as in earlier work; conditions: in humans; EMA reports; cited from earlier work
[4] = system: Caco-2 monolayer; assay: Bidirectional permeability in Caco-2 cells in absence and presence of SCE; type: in vitro ADME, human; conditions: for Change of Papp A-B in presence of SCE vs Free / Change of Papp B-A in presence of SCE vs Free / Change of efflux ratio in presence of SCE vs Free: +SCE 1 mg/mL vs Free
Method: (§2) Caco-2 cells were seeded at a density of 2 × 10^4 on Transwell supports (0.4 µm pore polycarbonate membrane, 6.5 mm) and incubated overnight in a controlled atmosphere of 37 °C and 5% of CO2. The following day, the medium was changed to remove floating cells and fresh pre-warmed DMEM 20% was added (300 µL in the apical compartment and 1200 µL in the basal one). Cells were cultured for approximately 18–21 days in order to ensure that the cellular monolayers differentiated and many transport proteins and brush border hydrolases were expressed. Media were changed every 2–3 days.
(§3) For permeability studies, stock solutions of compounds were prepared by solubilizing 1.0 mg of accurately weighed powder with dimethyl sulfoxide (DMSO) and conserved at −20 °C. Immediately prior to the experiments, working solutions (WS) were prepared by diluting the stock solutions with pre-warmed HBSS to the final concentration of 10 µM. The final concentration of DMSO used never exceeded 0.1% v/v. The assays were performed in both the absorptive (from apical-to-basolateral compartment (A-B)) and the secretory direction (from basolateral-to-apical compartment (B-A)), both in the absence (Free) and presence of sweet cherry extract (+SCE [1 mg/mL]) diluted in HBSS. The final volumes used for the experiment were 300 µL in the apical compartment and 1200 µL in the basolateral one. Plates were incubated at 37 °C and maintained under gentle shaking (500 rpm) to reduce the effect of the unstirred water layer. At selected time points (T0–0.25–0.5–1–2 h-TEND for the A-B studies; T0–2 h–TEND for the B-A studies), samples (200 µL) were collected from the receiving compartments (from the basolateral compartment for the A-B assay; from the apical one for the B-A study) and replaced with the same volume of HBSS. The HPLC-UV/MS method was developed to quantify the amount of drug transferred across the cellular monolayer, and permeability (Papp, 10^−6 cm/s) and efflux ratio (ER) were calculated according to the following equations:Papp = (dQ/dt) × 1/(A × C0)(5) where dQ/dt is the steady-state flux (µmol s^−1), A is the area of the filter (cm^2), and C0 is the initial concentration in the donor compartment (µM). ER = (Papp B-A)/(Papp A-B)(6)
(§4) Chromatographic analyses were carried out using an Agilent 1260 Infinity HPLC-DAD system connected to an Agilent MSD 6130 system (Agilent Technologies, Palo Alto, CA, USA). At room temperature, a Kinetex C18-100 Å column (150 mm 4.6 mm, purchased from Phenomenex, Torrance, CA, USA) with a 5 µm particle size and gradient elution with a binary solution (eluent A: H2O, eluent B: ACN, both acidified with 0.1% v/v formic acid) was for the chromatographic separation. Analyses started with 5% B (from t = 0 to t = 1 min), then increased to 95% (from t = 1 to t = 10 min), then maintained at 95% (from t = 10 to t = 15 min), and finally returned to […] in 1.0 min. The volume injected was 10 µL, and the flow rate 600 µL/min. UV detection was monitored at 254 nm, and spectra were collected in both the positive and negative modes within the scan range of m/z 100–1500.

[5] = as above; type: in vitro ADME, human; conditions: human, 10 µM compound; for Papp A→B at 2 h, 10 µM: apical to basolateral; for Papp B→A at 2 h, 10 µM: basolateral to apical; for efflux ratio at 2 h, 10 µM: read-out: Efflux ratio (ER) (Papp B-A/Papp A-B)
Method: as §2, §3, §4

[6] = previously published; cited from earlier work
[7] = human liver microsomes; previously published; cited from earlier work
[8] = previously published; cited from earlier work; remark: listed apart in the source
[9] = known from the literature; cited from earlier work
[10] = known from literature; cited from earlier work

| SMILES | Change of Papp A-B in presence of SCE vs Free [4] | Change of Papp B-A in presence of SCE vs Free [4] | Change of efflux ratio in presence of SCE vs Free [4] | Papp A→B at 2 h, 10 µM ([5]; Caco-2, +SCE [1 mg/mL]) | Papp B→A at 2 h, 10 µM ([5]; Caco-2, +SCE [1 mg/mL]) | efflux ratio at 2 h, 10 µM ([5]; Caco-2, +SCE [1 mg/mL]) | Papp A→B at 2 h, 10 µM ([5]; Caco-2, Free) | Papp B→A at 2 h, 10 µM ([5]; Caco-2, Free) | efflux ratio at 2 h, 10 µM ([5]; Caco-2, Free) | PAMPA Papp [6] | PAMPA membrane retention (MR %) [6] | Metabolic Stability [7] | further results |
| --- | --- | --- | --- | --- | --- | --- | --- | --- | --- | --- | --- | --- | --- |
| Cc1nc(Nc2ncc(C(=O)Nc3c(C)cccc3Cl)s2)cc(N2CCN(CCO)CC2)n1 [Dasatinib, dasatinib, reference compound] | slight increase | did not show relevant changes | reduced | 2.41 ± 0.12 ×10⁻⁶ cm/s | 31.1 ± 0.342 ×10⁻⁶ cm/s | 12.9 ± 0.786 | 2.02 ± 0.103 ×10⁻⁶ cm/s | 36.9 ± 2.95 ×10⁻⁶ cm/s | 18.2 ± 0.529 | – | – | – | viability at 10 µM ([1]; 10 µM): 90 to 100%; viability at 100 µM ([1]; 100 µM): 70 to 80%; Cell viability ([2]; 1 µM, vs untreated control): no significant signs of toxicity; Bioavailability [3]: 15.2% |
| CSc1nc(NCCc2ccccc2)c2cnn(CC(Cl)c3ccccc3)c2n1 (stereo not drawn) [Cpd 2] | almost doubled | significant reduction | nine-fold reduction | 0.224 ± 0.009 ×10⁻⁶ cm/s | 2.3 ± 0.279 ×10⁻⁶ cm/s | 10.2 ± 0.837 | – | 10.4 ± 0.363 ×10⁻⁶ cm/s | 97.3 ± 4.49 | 3.2 10^−6 cm/s | 42.7% | 96.6% | – |
| CC(Cn1ncc2c(Nc3cccc(O)c3)nc(NCCO)nc21)c1ccccc1 (stereo not drawn) [Cpd 4] | about three and four times | more interesting implementation | almost halved | 16.9 ± 0.743 ×10⁻⁶ cm/s | 53.3 ± 1.8 ×10⁻⁶ cm/s | 3.16 ± 0.245 | 5.11 ± 0.385 ×10⁻⁶ cm/s | 34.5 ± 0.817 ×10⁻⁶ cm/s | 6.77 ± 0.351 | lower than 1 10^−6 cm/s | 1% | 99.4% | – |
| Oc1ccc(Cl)c(Nc2ncnc3c2cnn3CC(Cl)c2ccccc2)c1 (stereo not drawn) [Cpd 3] | ~10 fold | more interesting implementation | almost halved | 16.3 ± 0.537 ×10⁻⁶ cm/s | 32.5 ± 0.784 ×10⁻⁶ cm/s | 2 ± 0.114 | 1.68 ± 0.061 ×10⁻⁶ cm/s | 4.74 ± 0.097 ×10⁻⁶ cm/s | ~3 | 4.3 (-) 10^−6 cm/s | – | 86.3% | – |
| Oc1ccc(Cl)c(Nc2nc(SCCN3CCOCC3)nc3c2cnn3/C=C/c2ccccc2)c1 [Cpd 7] | almost doubled | only a slight increase | only a slight decrease | 1.17 ± 0.12 ×10⁻⁶ cm/s | 0.457 ± 0.108 ×10⁻⁶ cm/s | 0.387 ± 0.052 | < 0.5 ×10⁻⁶ cm/s | 0.229 ± 0.023 ×10⁻⁶ cm/s | 0.517 ± 0.014 | 5.5 10^−6 cm/s | 5.4% | 97.6% | melting point: 189 to 191 °C; Water Solubility [8]: 0.036 µg/mL; Efflux ratio (ER) (Papp B-A/Papp A-B) ([4]; Free, 10 µM compound): 0.481 ± 0.049 |
| CC(C)NCC(O)COc1cccc2ccccc12 (stereo not drawn) [Propranolol, propranolol, reference compound] | doubled | did not show relevant changes | almost halved | 93.1 ± 3.84 ×10⁻⁶ cm/s | 37.2 ± 4.73 ×10⁻⁶ cm/s | 0.399 ± 0.034 | 41.3 ± 4.28 ×10⁻⁶ cm/s | 33.6 ± 0.967 ×10⁻⁶ cm/s | – | – | – | – | Cell viability ([2]; 1 µM, vs untreated control): no significant signs of toxicity; Cell viability ([2]; 100 µM): high percentages of viable cells; Oral bioavailability / oral absorption (of an oral dose) [9]: around 90%; Papp [10]: higher than 10 × 10^−6 cm/s |
| Fc1ccc(C(Cl)Cn2ncc3c(NCc4ccccc4)ncnc32)cc1 (stereo not drawn) [Cpd 1] | about three and four times | more interesting implementation | almost halved | 16.167 ± 0.014 ×10⁻⁶ cm/s | 26.8 ± 3.68 ×10⁻⁶ cm/s | 1.66 ± 0.226 | 4.943 ± 0.044 ×10⁻⁶ cm/s | 15.1 ± 1.57 ×10⁻⁶ cm/s | ~3 | – | 9.2% | 84.2% | melting point: 143 to 144 °C |
| CC(Cn1ncc2c(Nc3cc(O)ccc3Cl)nc(NCCO)nc21)c1ccccc1 (stereo not drawn) [Cpd 6] | about three and four times | more interesting implementation | almost halved | 14.9 ± 1.86 ×10⁻⁶ cm/s | 51.45 ± 0.118 ×10⁻⁶ cm/s | 3.48 ± 0.445 | 3.32 ± 0.041 ×10⁻⁶ cm/s | 19 ± 2.15 ×10⁻⁶ cm/s | 5.71 ± 0.578 | lower than 1 10^−6 cm/s | 4.0% | 97.9% | – |
| CC(Cn1ncc2c(Nc3cc(O)ccc3Cl)nc(SCCN3CCOCC3)nc21)c1ccccc1 (stereo not drawn) [Cpd 5] | only a slight improvement | significant reduction | almost halved | 1.54 ± 0.095 ×10⁻⁶ cm/s | 5.99 ± 0.286 ×10⁻⁶ cm/s | 3.88 ± 0.054 | 1.25 ± 0.122 ×10⁻⁶ cm/s | 8.04 ± 0.183 ×10⁻⁶ cm/s | 6.46 ± 0.486 | over 10 10^−6 cm/s | 6.6% | 97.9% | Caco-2 Papp A-B lower than PAMPA Papp ([4]; Free): ~10 fold |
